# Data published in US10172859B2, “Arylquinazolines” (Merck Patent GmbH, priority 2013, dated 2019).
# Like-named read-outs stand apart in the source and are kept apart here.
# Assays:
# DNA-PK/protein complex = DNA-PK/protein complex (Homo sapiens (Human), UniProt P78527); assay: DNA-PK assay (biochemical), flashplate kinase assay
# Experimental: A) DNA-PK Assay (Biochemical)
# The kinase assay was carried out in streptavidin-coated […] microtitre flashplates. […] The reaction was stopped using 50 μl/well of 200 mM EDTA. After incubation for a further 30 min at room temperature, the liquid was removed. Each well was washed three times with 100 μl of 0.9% saline solution. A nonspecific reaction (blank value) was determined using 10 μM of an innate kinase inhibitor. The radioactivity measurement was carried out using a TopCount. IC50 values were calculated in RS1.
# [1] = target: phospho-serine 2056 DNA-PK in HCT116 cells (Homo sapiens (Human), UniProt P78527); assay: DNA-PK phosphorylation at serine 2056 (cellular), ELISA in bleomycin-treated HCT116 cells; format: cell-based; settings: read-out: IC50 pDNA-PK
# Experimental: HCT116 cells were cultivated at 37° C. and 10% CO2 in MEM alpha medium with 10% of foetal calf serum and 2 mM glutamine. The cells were detached from the base of the culture vessels with the aid of trypsin/EDTA, centrifuged off in centrifuge tubes, taken up in fresh medium, and the cell density was determined. 100,000 cells were sown in 1 ml of culture medium per cavity of a 24-well cell culture plate and cultivated overnight. Next day, 10 μM bleomycin (DNA intercalator and inductor of DNA double-strand breaks) and test substances in fresh culture medium were added to the cells, and these were cultivated for a further six hours. […] The 96-well ELISA plates were subsequently treated with a detection antibody (Abcam ab79444: total DNA-PK) and a streptavidin-HRP conjugate. The development of the enzymatic reaction was carried out with the aid of a chemiluminescent reagent, the chemiluminescence was measured with the aid of a Mithras LB940. The signals with the phospho-DNA-PK-specific antibody were standardised to the signal with the antibody against the total protein DNA-PKc. […] The DMSO control was used as blank.
# Kv11.1 (hERG) channel [2] = target: T1, Kv11.1 (hERG) channel (Homo sapiens (Human), UniProt Q12809); assay: Kv11.1 (hERG) ion channel activity (patch clamp assay)
# Experimental: (§1) C) Kv11.1 (hERG) ION CHANNEL ACTIVITY (Patch Clamp Assay)
# (§2) The patch-clamp measurement was carried out at room temperature in whole-cell configuration on human embryonic kidney cells (HEK293) which have been transfected in a stable manner with the hERG gene.
# (§3) The whole-cell configurations were carried out using an automated patch clamp device (Patchliner™, Nanion Technologies, Munich). This is a glass chip-based system with which automated whole-cell measurements on up to 8 cells simultaneously are possible. The glass chip has a hole of defined size to which the cell is transferred into the Gigaseal by application of a reduced pressure and brought into the whole-cell configuration. Buffer, cell suspension and test substances were added to microchannels of the chip using a Teflon-coated pipette. The cells were clamped to a holding potential of −80 mV. For measurement of substancepromoted inhibition of the Kv11.1 channel, the following voltage protocol was applied at 10-second intervals: 51 ms/−80 mV, 500 ms/+40 mV, 500 ms/−40 mV, 200 ms/−80 mV. The leakage current is subtracted by means of the P4 method. The cells were resuspended in extracellular buffer (EC) and applied to the chip. After the cell had been collected, the seal was improved by addition of a seal enhancer buffer. As soon as the whole-cell configuration had been reached, the seal enhancer buffer was washed out and replaced by extracellular buffer. The measurement started in EC for 1.5 min. DMSO (vehicle control, 0.1% of DMSO) was then applied, and the control current was recorded for 3 min. The test substance was subsequently added twice in the same concentration, and the potassium current was measured for 3.5 min in each case.
# (§4) The reference substance used was the Kv11.1 (hERG) ion channel blocker quinidine. The effects of test substances and quinidine were standardised to the associated vehicle control. The effect on the Kv11.1 (hERG) channel activity was assessed from the potassium current at −40 mV. For the calculation, the current was evaluated for the respective final trace.
# (§5) During the measurement, an aliquot of the test substance was taken for concentration determination. The sample was measured immediately by HPLC, and the final concentration was determined from a calibration curve.
# Kv11.1 (hERG) channel [3] = target: T1, Kv11.1 (hERG) channel
# Experimental: as §1, §2, §3, §4, §5
# [4] = cellular, HCT116, 10 μM bleomycin, six hours
# T1 sequence (Q12809 whole entry): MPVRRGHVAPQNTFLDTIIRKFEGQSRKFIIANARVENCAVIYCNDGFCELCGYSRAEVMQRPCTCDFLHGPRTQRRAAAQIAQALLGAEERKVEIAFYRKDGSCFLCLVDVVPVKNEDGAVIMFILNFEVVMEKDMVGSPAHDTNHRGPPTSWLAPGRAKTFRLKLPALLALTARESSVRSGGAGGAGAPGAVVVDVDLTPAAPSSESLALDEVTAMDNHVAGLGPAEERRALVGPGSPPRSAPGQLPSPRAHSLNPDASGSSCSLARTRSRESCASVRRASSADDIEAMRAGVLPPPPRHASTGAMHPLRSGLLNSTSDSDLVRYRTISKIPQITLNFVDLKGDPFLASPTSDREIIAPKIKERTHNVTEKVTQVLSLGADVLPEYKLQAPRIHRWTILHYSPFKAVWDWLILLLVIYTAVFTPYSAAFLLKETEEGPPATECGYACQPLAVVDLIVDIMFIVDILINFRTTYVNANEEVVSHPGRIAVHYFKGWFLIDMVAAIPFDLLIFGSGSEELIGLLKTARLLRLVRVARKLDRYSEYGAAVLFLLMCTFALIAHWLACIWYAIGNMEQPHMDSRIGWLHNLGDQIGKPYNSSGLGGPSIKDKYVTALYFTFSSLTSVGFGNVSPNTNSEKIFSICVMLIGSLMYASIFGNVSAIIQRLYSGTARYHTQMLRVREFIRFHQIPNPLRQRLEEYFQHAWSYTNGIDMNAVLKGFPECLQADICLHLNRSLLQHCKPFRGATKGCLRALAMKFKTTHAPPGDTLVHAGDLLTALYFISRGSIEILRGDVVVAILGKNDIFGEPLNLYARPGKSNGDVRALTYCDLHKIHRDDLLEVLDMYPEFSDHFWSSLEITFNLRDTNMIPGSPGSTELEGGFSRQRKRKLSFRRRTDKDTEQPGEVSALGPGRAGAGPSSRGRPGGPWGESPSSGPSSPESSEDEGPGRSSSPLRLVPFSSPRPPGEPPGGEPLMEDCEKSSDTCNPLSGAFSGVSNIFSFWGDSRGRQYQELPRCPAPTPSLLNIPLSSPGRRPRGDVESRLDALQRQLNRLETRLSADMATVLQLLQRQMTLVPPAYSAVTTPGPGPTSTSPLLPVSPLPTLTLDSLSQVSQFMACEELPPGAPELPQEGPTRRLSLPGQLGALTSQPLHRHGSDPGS
"IC50 (DNA-PK/protein complex; enzymatic, 5 μM ATP) [µM]","IC50 [1, 4] [µM]",Structure (SMILES),Ki (Kv11.1 (hERG) channel [2]) [µM],further results
0.003 to 0.007,< 0.5,COc1nnc(Cl)cc1C(O)c1ccc(F)c(-c2ncnc3cc(N4CCOCC4)ccc23)c1 (centres unmarked) [Example 9],,"Ki (Kv11.1 (hERG) channel [2]; read-out: Ki [Kv1.11 hERG], HEK293 transfected with hERG gene, whole-cell): < 10 µM"
0.003 to 0.007,10 to 30,"Cn1nccc1C(O)c1ccc(F)c(-c2nc(Cl)nc3cc(N4CCOCC4)ccc23)c1 (centres unmarked) [Example 214, [3-(2-Chloro-7-morpholin-4-yl-quinazolin-4-yl)-4-fluoro-phenyl]-(2-methyl-2H-pyrazol-3-yl)-methanol]",15 to 25,
,,COc1nccnc1C(C(N)=O)c1cc(-c2ncnc3cc(N4CCOCC4)ccc23)ccc1F (centres unmarked) [Example 316],15 to 25,"IC50 (DNA-PK/protein complex; biochemical DNA-PK assay): > 0.03 µM; IC50 ([1]; DNA-PK phosphorylation at serine 2056, HCT116 cells): 5 to 10 µM"
,,"OC(c1ccc(F)c(-c2ncnc3cc(N4CCOCC4)ccc23)c1)c1nccnc1I (centres unmarked) [Example 462, [4-Fluoro-3-(7-morpholin-4-yl-quinazolin-4-yl)-phenyl]-(3-iodo-pyrazin-2-yl)-methanol]",,"Ki (Kv11.1 (hERG) channel [2]; read-out: Ki [Kv1.11 hERG], hERG patch clamp assay): 15 to 25 µM"
,,CCNCc1csc(C(O)c2cc(-c3ncnc4cc(N5CCOCC5)ccc34)c(F)cc2Cl)n1 (centres unmarked) [Example 190],,Ki (Kv11.1 (hERG) channel [3]): 15 to 25 µM
